“Also recorded” adds a separate entry of the source.
Key:
rats = conditions: systemic administration; cited from earlier work
[1] = in vivo; cited from earlier work
[2] = Gravimetric Vapour Sorption (GVS); assay type: physicochemical
Description: Gravimetric Vapour Sorption (GVS) data were collected using the following method: Approximately 10 mg of sample was placed into a wire-mesh vapour sorption balance pan and loaded into an ‘IgaSorp’ vapour sorption balance (Hiden Analytical Instruments). The sample was then dried by maintaining a 0% humidity environment until no further weight change was recorded. Subsequently, the sample was then subjected to a ramping profile from 0-90% RH at 10% RH increments, maintaining the sample at each step until equilibration had been attained (99% step completion). Upon reaching equilibration, the % RH within the apparatus was ramped to the next step and the equilibration procedure repeated. After completion of the sorption cycle, the sample was then dried using the same procedure. The weight change during the sorption/desorption cycles were then monitored, allowing for the hygroscopic nature of the sample to be determined.

[3] = Stability study, open vial, 40° C./75% RH, 7 and 28 days; assay type: physicochemical; conditions: for XRPD change on storage: open glass vial covered with tissue
Description: Further evidence of the suitability of the crystalline forms for pharmaceutical development is provided by the stability data disclosed herein. Form 1 of N-[(2,6-difluoro-3-methoxyphenyl)methyl]-3-(methoxymethyl)-1-({4-[(2-oxopyridin-1-yl)methyl]phenyl}methyl)pyrazole-4-carboxamide was stored at 40° C./75% RH in a open glass vial covered with tissue. […] (FIG. 3).
A sample of Form 1 was placed in an open vial covered with tissue in a dessicator under accelerated stability conditions of 40° C./75% RH. The sample was reanalysed after 7 days and 28 days by XRPD, STA and DSC using the same methods as described above.

[4] = Stability study, 40° C./75% RH 6 months and 25° C./60% RH 12 months, packed; assay type: physicochemical
Description: Yet further evidence of the suitability of the crystalline forms for pharmaceutical development is provided by additional stability data disclosed herein. Form 1 of N-[(2,6-difluoro-3-methoxyphenyl)methyl]-3-(methoxymethyl)-1-({4-[(2-oxopyridin-1-yl)methyl]phenyl}methyl)pyrazole-4-carboxamide was stored separately at two conditions of 40° C./75% RH for 6 months and 25° C./60% RH for 12 months packed into double polyethylene bags inside an HDPE bottle sealed with a screw cap closure.
Further samples of Form 1 were stored separately at two conditions of 40° C./75% RH for 6 months and 25° C./60% RH for 12 months packed into double polyethylene bags inside an HDPE bottle sealed with a screw cap closure. In this stability study X-Ray Powder Diffraction patterns were collected on a PANalytical X'Pert PRO diffractometer using CuKα radiation (45 kV, 40 mA), θ-θ goniometer, focusing mirror (Cu W/Si), divergence slit (½°), soller slits at both incident and diffracted beam (0.04 RAD), fixed mask (4 mm) and a PIXcel detector. The software used for data collection was X′Pert Data Collector, version 2.2f. The instrument was performance checked using a certified Standard Reference Material 640 d, Silicon Powder (NIST). XRPD patterns were acquired under ambient conditions via a transmission foil sample stage (polyimide—Kapton, TF-475, 7.5 μm thickness film). The specimen was examined with approximately 5 mg of the sample examined as dispensed onto the sample stage. The data collection range was 2.994-35.0056° […] with a step size of 0.0263° and a continuous scan speed of 0.202004° s^−1. No change in the XRPD diffractogram was observed after 6 months at 40° C./75% RH or after 12 months at 25° C./60% RH (FIG. 16).
Further tests on the samples of Form 1 stored at 25° C./60% RH and 40° C./75% RH were carried out as described in the table below.

postoperative bleeding = conditions: in vivo; cited from earlier work

## N=C(N)c1ccc(CNC(=O)c2cnn(Cc3ccccc3)c2)cc1 [ASP-440]
rats
  Hematoma expansion: reduced hematoma expansion
[1]
  Oral availability: poor oral availability

## COCc1nn(Cc2ccc(Cn3ccccc3=O)cc2)cc1C(=O)NCc1c(F)ccc(OC)c1F [Form 1, N-[(2,6-difluoro-3-methoxyphenyl)methyl]-3-(methoxymethyl)-1-({4-[(2-oxopyridin-1-yl)methyl]phenyl}methyl)pyrazole-4-carboxamide]
[2]
  Hygroscopicity by GVS: absence of significant hygroscopicity
[2]; 0.007 %-RH
  %-Wt (dry basis), Adsorption: 0.000001 %-Wt
[2]; 0.008 %-RH
  %-Wt (dry basis), Adsorption: 0.001373 %-Wt
[2]; 0.32 %-RH
  %-Wt (dry basis), Desorption: 0.002745 %-Wt
[2]; 5 %-RH
  %-Wt (dry basis), Desorption: 0.04664 %-Wt
[2]; 10.023 %-RH
  %-Wt (dry basis), Adsorption: 0.07544 %-Wt
[2]; 14.995 %-RH
  %-Wt (dry basis), Desorption: 0.09053 %-Wt
[2]; 20.021 %-RH
  %-Wt (dry basis), Adsorption: 0.1619 %-Wt
[2]; 24.99 %-RH
  %-Wt (dry basis), Desorption: 0.1934 %-Wt
[2]; 30.013 %-RH
  %-Wt (dry basis), Adsorption: 0.2634 %-Wt
[2]; 34.982 %-RH
  %-Wt (dry basis), Desorption: 0.2908 %-Wt
[2]; 40.002 %-RH
  %-Wt (dry basis), Adsorption: 0.3978 %-Wt
[2]; 44.976 %-RH
  %-Wt (dry basis), Desorption: 0.4554 %-Wt
[2]; 50.002 %-RH
  %-Wt (dry basis), Adsorption: 0.5926 %-Wt
[2]; 55.026 %-RH
  %-Wt (dry basis), Desorption: 0.6474 %-Wt
[2]; 59.996 %-RH
  %-Wt (dry basis), Adsorption: 0.8573 %-Wt
[2]; 65.02 %-RH
  %-Wt (dry basis), Desorption: 1.033 %-Wt
[2]; 69.993 %-RH
  %-Wt (dry basis), Adsorption: 1.311 %-Wt
[2]; 75.011 %-RH
  %-Wt (dry basis), Desorption: 1.653 %-Wt
[2]; 79.987 %-RH
  %-Wt (dry basis), Adsorption: 2.17 %-Wt
[2]; 85.005 %-RH
  %-Wt (dry basis), Desorption: 2.905 %-Wt
[2]; 89.98 %-RH
  %-Wt (dry basis), Adsorption: 4.173 %-Wt
  %-Wt (dry basis), Desorption: 4.173 %-Wt
[2]; FIG. 4
  Reversibility of hydration (hysteresis) by GVS: hydration is reversible (i.e. no significant hysteresis)
[2]; normal conditions (up to 70% relative humidity)
  Increase in water content by GVS: only a relatively gradual increase in water content
[3]; 40° C./75% RH, 7 days
  XRPD change on storage: no change
[3]; 40° C./75% RH, 28 days
  XRPD change on storage: no change
[3]; 40° C./75% RH, open vial, after 7 days
  DSC onset temperature: 155.2 °C
[3]; 40° C./75% RH, open vial, after 28 days
  DSC onset temperature: 155.0 °C
[3]; initial timepoint
  DSC onset temperature: 154.9 °C
[4]; 25° C./60% RH, 12 months
  Appearance: As initial
  Assay (% w/w on an anhydrous basis): 99.94 % w/w
  Assay (% w/w “as-is”): 99.78 % w/w
  DSC Onset: Onset = 156.8 °C
  DSC Peak: Peak = 159.5 °C
  Purity (% area): 100 % area
  Water content (% w/w): 0.12 % w/w
  XRPD: no change; also recorded: As initial
[4]; 40° C./75% RH, 6 months
  Appearance: As initial
  Assay (% w/w on an anhydrous basis): 99.31 % w/w
  Assay (% w/w “as-is”): 99.1 % w/w
  DSC Onset: Onset = 157.5 °C
  DSC Peak: Peak = 159.8 °C
  Impurity Profile by HPLC (% area), Approx RRT 1.16: 0.03 % area
  Purity (% area): 99.99 % area
  Water content (% w/w): 0.17 % w/w
  XRPD: no change; also recorded: As initial
[4]; Initial, 0 months
  Appearance: A white solid. Free from
  Assay (% w/w on an anhydrous basis): 100.18 % w/w
  DSC Onset: Onset = 156.3 °C
  DSC Peak: Peak = 158.9 °C
  Impurity Profile by HPLC (% area), Approx RRT 1.12: 0.03 % area
  Purity (% area): 100 % area
  Water content (% w/w): 0.19 % w/w
  XRPD: Conforms to Form 1
[4]; over the course of the study (6 months 40° C./75% RH, 12 months 25° C./60% RH)
  All measured parameters including Assay, Water Content, XRPD, DSC, Purity and Impurity Profile: remained unchanged

## COCc1nn(Cc2ccc(Cn3ccccc3=O)cc2)cc1C(=O)NCc1c(F)ccc(OC)c1F [Form A, N-[(2,6-Difluoro-3-methoxyphenyl)methyl]-3-(methoxymethyl)-1-({4-[(2-oxopyridin-1-yl)methyl]phenyl}methyl)pyrazole-4-carboxamide]
[2]; 0.01 %-RH
  %-Wt (dry basis), Desorption: 1.174 %-Wt
[2]; 0.012 %-RH
  %-Wt (dry basis), Adsorption: 0.003304 %-Wt
[2]; 0.013 %-RH
  %-Wt (dry basis), Adsorption: 0.004135 %-Wt
[2]; 5.002 %-RH
  %-Wt (dry basis), Desorption: 2.121 %-Wt
[2]; 10.022 %-RH
  %-Wt (dry basis), Adsorption: 0.3314 %-Wt
[2]; 15.039 %-RH
  %-Wt (dry basis), Desorption: 3.537 %-Wt
[2]; 20.014 %-RH
  %-Wt (dry basis), Adsorption: 0.7833 %-Wt
[2]; 25.192 %-RH
  %-Wt (dry basis), Desorption: 5.219 %-Wt
[2]; 30.014 %-RH
  %-Wt (dry basis), Adsorption: 1.246 %-Wt
[2]; 34.985 %-RH
  %-Wt (dry basis), Desorption: 6.774 %-Wt
[2]; 40.009 %-RH
  %-Wt (dry basis), Adsorption: 1.892 %-Wt
[2]; 44.978 %-RH
  %-Wt (dry basis), Desorption: 7.808 %-Wt
[2]; 49.999 %-RH
  %-Wt (dry basis), Adsorption: 2.49 %-Wt
[2]; 55.023 %-RH
  %-Wt (dry basis), Desorption: 8.516 %-Wt
[2]; 59.993 %-RH
  %-Wt (dry basis), Adsorption: 3.239 %-Wt
[2]; 65.019 %-RH
  %-Wt (dry basis), Desorption: 9.185 %-Wt
[2]; 69.992 %-RH
  %-Wt (dry basis), Adsorption: 4.507 %-Wt
[2]; 75.011 %-RH
  %-Wt (dry basis), Desorption: 9.927 %-Wt
[2]; 79.981 %-RH
  %-Wt (dry basis), Adsorption: 7.117 %-Wt
[2]; 85.009 %-RH
  %-Wt (dry basis), Desorption: 10.43 %-Wt
[2]; 89.98 %-RH
  %-Wt (dry basis), Adsorption: 10.71 %-Wt
  %-Wt (dry basis), Desorption: 10.71 %-Wt

## aprotinin
Postoperative bleeding
  Postoperative bleeding: may be used to decrease postoperative bleeding

— US20200317639A1, “POLYMORPHS OF N-[(2,6-DIFLUORO-3-METHOXYPHENYL)METHYL]-3-(METHOXYMETHYL)-1-({4-[(2-OXOPYRIDIN-1YL)METHYL]PHENYL}METHYL)PYRAZOLE-4-CARBOXAMIDE” (KALVISTA PHARMACEUTICALS LIMITED, priority 2016, published 2020)
